SMILES strings stand for the structures. Read-outs that look alike come from different tables or passages of the source.

In series [1] the test system is K11 HPV E7 transformed human keratinocyte line. Briefly: Secondary assay: cell proliferation WST-1, K11. In kind it is cell-based. The conditions noted are these: Homo sapiens, Keratinocyte; for IC50: Table 2, 48 h, read-out: Cell Proliferation Inhibition WST-1 (IC50 unless otherwise specified) K11. In general terms: Tetrazolium assays rely on reduction of a dye to a coloured formazan, in cell work by metabolically active cells.

Another series concerns JURKAT human T-cell line. Briefly: Secondary assay: cell proliferation WST-1, Jurkat. In kind it is cell-based. The conditions noted are these: Homo sapiens, Table 2, 48 h, read-out: Cell Proliferation Inhibition WST-1 (IC50 unless otherwise specified) Jurkat.
The test system of a further series is HeLa cells. Briefly: Secondary assay: cell proliferation WST-1, HeLa. Type of series: cell-based. As to conditions: Homo sapiens, read-out: Cell Proliferation Inhibition WST-1 (IC50 unless otherwise specified) HeLa.
Another series relates to HDAC (HeLa cell extract). Briefly: Primary assay: deacetylase activity, HeLa cell extract as source of HDAC. Type of series: biochemical, human. The source says:
Briefly, this assay relies on the release of radioactive acetate from a radioactively labelled histone fragment by the action of HDAC enzyme. Test compounds, which inhibit HDAC, reduce the yield of radioactive acetate. Signal (e.g., scintillation counts) measured in the presence and absence of a test compound provide an indication of that compound's ability to inhibit HDAC activity. Decreased activity indicates increased inhibition by the test compound.
The histone fragment was an N-terminal sequence from histone H4, and it was labelled with radioactively labelled acetyl groups using tritiated acetylcoenzyme A (coA) in conjunction with an enzyme which is the histone acetyltransferase domain of the transcriptional coactivator p300. […] The acetylated peptide was then separated from free acetyl coA by size exclusion chromatography on Sephadex G-15 (Sigma G-15-120), using distilled H2O as the mobile phase.
After purification of the radiolabelled histone fragment, it was incubated with a source of HDAC (e.g., an extract of HeLa cells (a rich source of HDAC), recombinantly produced HDAC1 or HDAC2) and any released acetate was extracted into an organic phase and quantitatively determined using scintillation counting. By including a test compound with the source of HDAC, that compound's ability to inhibit the HDAC was determined.
Two cell volumes of extraction buffer were used, and particulate material was centrifuged out (20800 g, 4° C., 10 min). The supernatant extract having deacetylase activity was aliquotted and frozen for storage.
A source of HDAC (e.g., 2 μL of crude HeLa extract, 5 μL of HDAC1 or HDAC2; in elution buffer, as above) was incubated with 3 μL of radioactively labelled peptide along with appropriate dilutions of candidate compounds (1.5 μL) in a total volume of 150 μL of buffer (20 mM Tris pH 7.4, 10% glycerol). The reaction was carried out at 37° C. for one hour, after which the reaction was stopped by adding 20 μL of 1 M HCl/0.4 M sodium acetate. […] Radioactivity was measured using a Tri-Carb 21 00TR Liquid Scintillation Analyzer (Packard).
Percent activity (% activity) for each test compound was calculated as: % activity={(S^C−B)/(S°−B)}×100 wherein S^C denotes signal measured in the presence of enzyme and the compound being tested, S° denotes signal measured in the presence of enzyme but in the absence of the compound being tested, and B denotes the background signal measured in the absence of both enzyme and compound being tested.

Where [2] appears, read: Table 1, read-out: HDAC Inhibition (IC50 unless otherwise specified) HeLa.
The mark [3] stands for this setting: comparative tables, HDAC inhibition, read-out: HeLa IC50.

In the case of `O=C(/C=C/c1cccc(S(=O)(=O)NCc2ccccc2)c1)NO` [PX106511], the melting point – broadly, the temperature of the solid-liquid transition – came out at 179 °C. In series [1], the IC50 amounted to 2.5 µM. Also, in the series with JURKAT human T-cell line, the IC50 came out at 0.235 µM. For the same molecule, the IC50 in the series with HeLa cells (Table 2, 48 h) came out at 0.38 µM. Moreover, the IC50 with HDAC (HeLa cell extract) (setting [2]) amounted to 0.035 µM. Also, in the series on HDAC (HeLa cell extract) (setting [3]), the IC50 is 0.035 µM.
`O=C(/C=C/c1cccc(S(=O)(=O)NCc2cccc3ccccc23)c1)NO` [PX117225, N-Hydroxy-3-{3-[(naphthalen-1-ylmethyl)sulfamoyl]-phenyl}-acrylamide] yielded a melting point of 177 °C. For the same molecule, at 20 µM the inhibition in series [1] (Table 2, @ 20 μM, 48 h) was 26%. The IC50 in the series on JURKAT human T-cell line came to 3.3 µM. In addition, the IC50 with HeLa cells (48 h) was determined as 11.9 µM. Besides, the IC50 with HDAC (HeLa cell extract) (setting [2]) is 0.64 µM. Further, the IC50 in the series with HDAC (HeLa cell extract) (setting [3]) was 0.64 µM.
Regarding `O=C(/C=C/c1cccc(S(=O)(=O)NCc2ccc3c(c2)OCO3)c1)NO` [PX117226, 3-{3-[(Benzo[1,3]dioxol-5-ylmethyl)-sulfamoyl]-phenyl}-N-hydroxy-acrylamide], the melting point amounted to 163 °C. In series [1], the IC50 was 2.8 µM. The IC50 with JURKAT human T-cell line stood at 0.1 µM. In the series on HeLa cells (Table 2, 48 h), the IC50 was 0.5 µM. Besides, in the series on HDAC (HeLa cell extract) (setting [2]), the IC50 stood at 0.0263 µM.
Taken in the same sequence, the figures for `COc1ccccc1NS(=O)(=O)c1cccc(/C=C/C(=O)NO)c1` [PX117227, N-Hydroxy-3-[3-(2-methoxy-phenylsulfamoyl)-phenyl]-acrylamide] were 181 °C, 4.7 µM, 0.36 µM, 1.2 µM and 0.05 µM.
The molecule `O=C(/C=C/c1cccc(NS(=O)(=O)/C=C/c2ccccc2)c1)NO` [PX117446, N-Hydroxy-3-{3-[(E)-2-phenylethenesulfonylamino]phenyl}acrylamide] yielded a melting point of 171 °C. For the same molecule, the IC50 in series [1] was found to be 3.7 µM. Moreover, the IC50 with JURKAT human T-cell line turned out to be 0.43 µM. Further, the IC50 in the series on HeLa cells (Table 2, 48 h) stood at 6 µM. In addition, the IC50 in the series with HDAC (HeLa cell extract) (setting [2]) worked out at 0.018 µM. The IC50 with HDAC (HeLa cell extract) (setting [3]) stood at 0.018 µM.
In the case of `O=C(/C=C/C#Cc1ccc(S(=O)(=O)Nc2ccccc2)cc1)NO` [PX117453, E-5-(4-Phenylsulfamoylphenyl)pent-2-en-4-ynoic acid hydroxyamide], the melting point was in the range of 161 to 163 °C. For the same molecule, the IC50 in series [1] was 4.2 µM. Moreover, the IC50 with JURKAT human T-cell line was 1.1 µM. In the series on HeLa cells (Table 2, 48 h), the IC50 worked out at 5.7 µM. Further, the IC50 in the series on HDAC (HeLa cell extract) (setting [2]) was found to be 0.045 µM. Also, in the series with HDAC (HeLa cell extract) (setting [3]), the IC50 came to 0.045 µM.
`O=C(/C=C/c1cccc(S(=O)(=O)NCc2ccco2)c1)NO` [PX117710, 3-{3-[(Furan-2-ylmethyl)-sulfamoyl]-phenyl}-N-hydroxyacrylamide] returned a melting point of 165 °C. Also, the IC50 in series [1] was 4 µM. Besides, the IC50 with JURKAT human T-cell line is 0.42 µM. Besides, the IC50 in the series with HeLa cells (Table 2, 48 h) is 5 µM. Besides, in the series on HDAC (HeLa cell extract) (setting [2]), the IC50 came to 0.125 µM.
For `COc1cccc(NS(=O)(=O)c2cccc(/C=C/C(=O)NO)c2)c1` [PX117712, N-Hydroxy-3-[3-(3-methoxy-phenylsulfamoyl)-phenyl]-acrylamide], the melting point was determined as 137 °C. Further, the IC50 in series [1] stood at 0.65 µM. The IC50 in the series on JURKAT human T-cell line came to 0.13 µM. Moreover, the IC50 with HeLa cells (Table 2, 48 h) worked out at 1.1 µM. Besides, the IC50 in the series with HDAC (HeLa cell extract) (setting [2]) turned out to be 0.014 µM.
Molecule `O=C(/C=C/c1cccc(S(=O)(=O)Nc2ccc(-c3ccccc3)cc2)c1)NO` [PX117715, 3-[3-(Biphenyl-4-ylsulfamoyl)-pheny]-N-hydroxy-acrylamide] displayed a melting point of 188 °C. Also, the IC50 in series [1] worked out at 0.93 µM. Besides, the IC50 in the series on JURKAT human T-cell line was determined as 0.29 µM. The IC50 with HeLa cells (Table 2, 48 h) turned out to be 1.5 µM. Moreover, the IC50 in the series on HDAC (HeLa cell extract) (setting [2]) is 0.01 µM.
For `O=C(/C=C/c1cccc(S(=O)(=O)Nc2cccc(Br)c2)c1)NO` [PX117734, 3-[3-(3-Bromo-phenylsulfamoyl)-phenyl]-N-hydroxy-acrylamide] the same measures were 135.5 to 136.5 °C, 0.88 µM, 0.079 µM, 2.1 µM and 0.008 µM.
Taken in the same sequence, the figures for `O=C(/C=C/c1cccc(S(=O)(=O)NC(c2ccccc2)c2ccccc2)c1)NO` [PX117773, 3-[3-(Benzhydryl-sulfamoyl)-phenyl]-N-hydroxy-acrylamide] were 180 °C, 6.2 µM, 1.2 µM, 3.4 µM and 0.067 µM.
For `O=C(/C=C/c1cccc(S(=O)(=O)NC(Cc2ccccc2)c2ccccc2)c1)NO` (centres unmarked) [PX117774, 3-[3-(1,2-Diphenyl-ethylsulfamoyl)-phenyl]-N-hydroxy-acrylamide] the same measures were 150 °C, 7 µM, 1 µM, 6.4 µM and 0.396 µM.
In turn, `O=C(/C=C/c1cccc(S(=O)(=O)Nc2ccc(OC(F)(F)F)cc2)c1)NO` [PX117775, N-Hydroxy-3-[3-(4-trifluoromethoxy-phenylsulfamoyl)-phenyl]-acrylamide] showed a melting point of 131 °C. In addition, the IC50 in series [1] amounted to 5.3 µM. Further, in the series on JURKAT human T-cell line, the IC50 was 0.53 µM. Moreover, the IC50 in the series on HeLa cells (Table 2, 48 h) was determined as 2.1 µM. The IC50 with HDAC (HeLa cell extract) (setting [2]) came out at 0.016 µM.
For `COc1ccc(S(=O)(=O)Nc2cccc(/C=C/C(=O)NO)c2)cc1OC` [PX117780, 3-[3-(3,4-Dimethoxy-benzenesulfonylamino)-phenyl]-N-hydroxy-acrylamide] the same measures were 158 °C, 10.5 µM, 4 µM, 16.8 µM and 0.125 µM.
For `O=C(/C=C/c1cccc(NS(=O)(=O)c2ccc(-c3ccccc3)cc2)c1)NO` [PX117781, 3-[3-(Biphenyl-4-sulfonylamino)-phenyl]-N-hydroxy-acrylamide] the same measures were 115 °C, 2.2 µM, 0.8 µM, 3.4 µM and 0.058 µM.
The molecule `COc1ccc(NS(=O)(=O)c2cccc(/C=C/C(=O)NO)c2)cc1OC` [PX117782, 3-[3-(3,4-Dimethoxy-phenylsulfamoyl)-phenyl]-N-hydroxy-acrylamide] came in with a melting point of 191 °C. Further, the IC50 in series [1] came out at 15.6 µM. Also, the IC50 in the series with JURKAT human T-cell line came out at 0.35 µM. Also, the IC50 in the series with HeLa cells (Table 2, 48 h) stood at 2.9 µM. For the same molecule, the IC50 with HDAC (HeLa cell extract) (setting [2]) came out at 0.038 µM.
For the molecule `O=C(/C=C/c1cccc(S(=O)(=O)Nc2ccccc2F)c1)NO` [PX117787, 3-[3-(2-Fluoro-phenylsulfamoyl)-phenyl]-N-hydroxy-acrylamide], the melting point was in the range of 102 to 103 °C. Moreover, in series [1], the IC50 amounted to 1.2 µM. In addition, the IC50 in the series with JURKAT human T-cell line turned out to be 0.5 µM. Also, the IC50 in the series with HeLa cells (Table 2, 48 h) came to 2.6 µM. For the same molecule, in the series with HDAC (HeLa cell extract) (setting [2]), the IC50 came out at 0.067 µM.
`O=C(/C=C/c1cccc(S(=O)(=O)Nc2cccc(F)c2)c1)NO` [PX117788, 3-[3-(3-Fluoro-phenylsulfamoyl)-phenyl]-N-hydroxy-acrylamide] registered a melting point of 130 to 133 °C. The IC50 in series [1] worked out at 1.7 µM. The IC50 in the series with JURKAT human T-cell line was 0.29 µM. Besides, the IC50 with HeLa cells (Table 2, 48 h) was 2 µM. In addition, in the series on HDAC (HeLa cell extract) (setting [2]), the IC50 stood at 0.036 µM.
Taken in the same sequence, the figures for `O=C(/C=C/c1cccc(S(=O)(=O)Nc2ccc(OC(F)F)cc2)c1)NO` [PX117789, 3-[3-(4-Difluoromethoxy-phenylsulfamoyl)-phenyl]-N-hydroxy-acrylamide] were 91 to 93 °C, 0.8 µM, 0.3 µM, 1.1 µM and 0.03 µM.
Consider `COc1ccc(C(F)(F)F)cc1NS(=O)(=O)c1cccc(/C=C/C(=O)NO)c1` [PX117791, N-Hydroxy-3-[3-(2-methoxy-5-trifluoromethyl-phenylsulfamoyl)-phenyl]-acrylamide], for which the melting point is 207 °C (dec.). The IC50 in series [1] was determined as 6.7 µM. Further, in the series on JURKAT human T-cell line, the IC50 was determined as 1.3 µM. The IC50 with HeLa cells (Table 2, 48 h) is 3.6 µM. In addition, in the series with HDAC (HeLa cell extract) (setting [2]), the IC50 stood at 0.25 µM.

These data come from patent publication US7407988B2, “Carbamic acid compounds comprising a sulfonamide linkage as HDAC inhibitors” (Topotarget UK Limited, priority 2000, dated 2008).
